Assay results reported in article PMC12040169 (PLOS Biology, 2025).

Test: in vitro
Conditions: human, hela cells, % viability

Row | SMILES | viability at 28.5 h, 10 µM [%]
1 | O=C(NCCc1ccc(Cl)cc1)C1CCN(C(=O)CCc2ccccc2F)C1 (centres unmarked) [CBK285931] | 84.1
2 | Cc1cc(Cc2ccccc2F)cc(C2CCN(C(=O)c3nc4ccc(F)cc4[nH]3)CC2)n1 [CBK285932] | 120
3 | Cc1cc(N2CCCC(N(C)S(=O)(=O)c3cccc(F)c3)CC2)nc(C)n1 (centres unmarked) [CBK285935] | 85.5
4 | CN(Cc1ccccc1)C(=O)c1c[nH]nc1C1CCCCN1Cc1ccccc1Cl (centres unmarked) [CBK285936] | 88.1
5 | CN(C)c1ccc(CCNS(=O)(=O)c2ccc3[nH]c(=O)[nH]c(=O)c3c2)cc1 [CBK285938] | 84.8
6 | Cc1nc(C2(O)CCCN(C3CCCC3)CC2)sc1COc1ccc(Cl)cc1 (centres unmarked) [CBK285940] | 122
7 | CN(Cc1ccc2ncccc2c1)C(=O)C1CN(S(=O)(=O)c2ccc(F)cc2)C1 [CBK285943] | 92.5
8 | CC(C)c1csc(NC(=O)C2CN(S(=O)(=O)c3ccc(F)cc3)C2)n1 [CBK285944] | 120
9 | COc1ccc(-c2cncc(C3CN(Cc4cccc5ncccc45)CCO3)n2)cc1 (centres unmarked) [CBK285947] | 96.7
10 | CC(NC(=O)CC1CCN(Cc2cccc(C(F)(F)F)c2)CC1)c1nc2ccccc2[nH]1 (centres unmarked) [CBK285952] | 104
11 | COc1ccccc1CC(C)NC(=O)CC1CCN(c2nc(C)cc(C)n2)CC1 (centres unmarked) [CBK285956] | 111
12 | Cc1cc(C)nc(N2CCC(CC(=O)N3CCN(C4CCCC4)CC3)CC2)n1 [CBK285957] | 97.6
13 | O=C(CC1CCN(Cc2ccccn2)CC1)NCC1(c2ccccc2)CCCC1 [CBK285959] | 87.4
14 | O=C(CC1CCN(Cc2ccccn2)CC1)Nc1ccc(OC2CCCC2)cc1 [CBK285960] | 104
15 | CC(C)c1csc(NC(=O)CC2CCN(C(=O)CC3CCCCC3)CC2)n1 [CBK285963] | 82.3
16 | Cc1cccc(CCNC(=O)CC2CCN(C(=O)CC3CCCCC3)CC2)c1 [CBK285964] | 114
17 | O=C(CC1CCN(C(=O)Cc2ccccc2)CC1)NC1(c2ccccc2)CCCC1 [CBK285965] | 101
18 | Cc1cnc(Nc2cccc(C3CCCN3C(=O)CCOc3ccccc3C)n2)s1 (centres unmarked) [CBK285972] | 112
19 | COc1cccc(-c2cncc(C3CN(Cc4cccc5ncccc45)CCO3)n2)c1 (centres unmarked) [CBK285973] | 102
20 | CCn1c(CN2CCCC2c2nc(N(C)C)ncc2-c2ccc(F)cc2)nc2ccccc21 (centres unmarked) [CBK285974] | 94.9
21 | O=C(Cn1cccc(C(=O)NC2CCCC2)c1=O)NCC1(c2ccccc2)CCCC1 [CBK285975] | 96.2
22 | Cc1[nH]c2cccc(C(=O)N3CCCCC3CCNC(=O)c3ccccc3)c2c1C (centres unmarked) [CBK285976] | 82
23 | COc1ccccc1CC(=O)N1[C@H](Cc2ccccc2)C[C@@H]2NCCCCC[C@H]21 [CBK285978] | 96.3
24 | O=C(NC[C@H]1CC[C@H](c2cc(C(=O)N3CCOCC3)c3ccccc3n2)CC1)C1CCCC1 [CBK285979] | 89.9
25 | Cc1ccc(C2CCCN2C(=O)c2ccc(=O)n(CC(=O)NC3CCCCC3)c2)cc1C (centres unmarked) [CBK285982] | 97.4
26 | CC(C)(CNC(=O)c1ccc(=O)n(CC(=O)NC2CCCCC2)c1)c1ccccc1F [CBK285983] | 90.7
27 | CC(C)(CNC(=O)c1ccc(=O)n(CC(=O)NC2CCCCC2)c1)c1ccc(F)cc1 [CBK285984] | 83.9

Row | SMILES | viability at 28.5 h, 10 µM [%]
28 | Cc1cc(C)nc(Nc2ccc(C3CCCN(S(=O)(=O)c4ccc(F)cc4)C3)nc2)n1 (centres unmarked) [CBK285987] | 86
29 | Cc1cc(C)nc(Nc2ccc(C3CCCN(C(=O)c4c(C)oc5c4CCCC5)C3)nc2)n1 (centres unmarked) [CBK285988] | 109
30 | Cn1c(CCC(=O)Nc2ccc3c(c2)CN(Cc2ccccc2)C3)nc2ccccc21 [CBK285990] | 81.2
31 | COc1ccc(CCC(=O)N2CCCC2c2ccc(Cc3ccccc3F)cn2)cc1 (centres unmarked) [CBK285992] | 94.2
32 | Cc1cc(C)nc(N2CCC(CC(=O)NC(C)CCN3CCCCCC3)CC2)n1 (centres unmarked) [CBK285993] | 96.4
33 | Cc1cc(C)nc(N2CCC(CC(=O)NCCCc3ccc(F)cc3)CC2)n1 [CBK285995] | 83.1
34 | CCn1ccc(NC(=O)CC2CCN(Cc3cccc(C(F)(F)F)c3)CC2)n1 [CBK285997] | 101
35 | O=C(Cn1cc(C(=O)NCc2ccccc2)ccc1=O)Nc1cc(F)ccc1N1CCCC1 [CBK285998] | 97.8
36 | COc1cccc(CC(=O)N2CCCC2c2cc(Nc3nc(C)cc(C)n3)cc(C)n2)c1 (centres unmarked) [CBK285999] | 90.5
37 | Cc1nc2ccccn2c1CC(=O)N1CCCC(c2ccc(Cc3cccc(F)c3)cn2)C1 (centres unmarked) [CBK286002] | 91.3
38 | CC1CCc2nc(NC(=O)C3CN(S(=O)(=O)c4ccc(F)cc4)C3)sc2C1 (centres unmarked) [CBK286004] | 110
39 | O=C(Cn1cccc(C(=O)Nc2cc(F)ccc2N2CCCC2)c1=O)NC1CCCCC1 [CBK286008] | 88.9
40 | Cc1ccc(C)c(C2CCCN2C(=O)c2cccn(CC(=O)NC3CCCCC3)c2=O)c1 (centres unmarked) [CBK286010] | 93
41 | Cc1[nH]c2c(C)ccc(C)c2c1CC(=O)N1[C@@H](c2ccccc2F)C[C@@H]2NC(=O)CCC[C@H]21 [CBK286011] | 76.3
42 | CNC(=O)c1ccc(-c2ccc(CNC(=O)C3(c4cccc(F)c4)CCCC3)cc2)nc1C [CBK286013] | 105
43 | Cc1cc(CCCC(=O)NCc2ccc(-c3ccc(C(N)=O)c(C)n3)cc2)ccc1F [CBK286016] | 90.3
44 | CC(C)c1ccc(C(C)NC(=O)c2cccn(CC(=O)NC3CCCC3)c2=O)cc1 (centres unmarked) [CBK286018] | 91.3
45 | Cc1nc(Nc2cccc(C3CCCN3C(=O)COc3ccc(F)cc3)n2)sc1C (centres unmarked) [CBK286019] | 87
46 | O=C(NCc1ccc(F)cc1)c1ccc(=O)n(CC(=O)N2CCC3(CCCCC3)C2)c1 [CBK286021] | 109
47 | Cc1ccc(C)c(C2CCCN2C(=O)C2CN(C(=O)C3CCN(C)CC3)C2)c1 (centres unmarked) [CBK286022] | 97.5
48 | Cn1c(=O)oc2ccc(C(=O)Nc3cccc(-c4ccc(F)cc4)c3)cc21 [CBK286023] | 84.9
49 | Cc1nc(C2(O)CCCN(Cc3cccc(F)c3)CC2)sc1CCOc1ccccc1 (centres unmarked) [CBK286024] | 89.6
50 | Cc1cc(C)c2nc(NC(=O)c3ccc(=O)n(CC(=O)N(C)c4ccccc4)c3)sc2c1 [CBK286025] | 91.5
51 | CCCn1cnc2cc(NC(=O)c3ccc(=O)n(CC(=O)N(C)c4ccccc4)c3)ccc21 [CBK286026] | 94.3
52 | Cc1ccccc1CCNC(=O)c1cccn(CC(=O)N(C)C2CCCCC2)c1=O [CBK286028] | 122
53 | Cc1cc(C)nc(N2CCC(CC(=O)NCC(C)N3CCCCCC3)CC2)n1 (centres unmarked) [CBK286029] | 94.9
54 | O=C(Cc1ccccc1)N1CCC(CC(=O)N2CCC3(CCCCC3)C2)CC1 [CBK286031] | 93.8

Row | SMILES | viability at 28.5 h, 10 µM [%]
55 | Cc1ccc2c(c1)cc(C(=O)N1CCOC(C(=O)N3CCCCCC3)C1)n2C (centres unmarked) [CBK286032] | 109
56 | CC(C)(C(=O)N1CCC(C(=O)NCCc2c[nH]c3ccccc23)C1)c1ccc(F)cc1 (centres unmarked) [CBK286034] | 102
57 | CN(C)c1ncc(-c2ccc(Cl)cc2)c(C2CCCN2C(=O)CN2CCCC2)n1 (centres unmarked) [CBK286037] | 99.2
58 | CC(C)c1ccc(C(C)NC(=O)c2ccc(=O)n(CC(=O)NC3CCCC3)c2)cc1 (centres unmarked) [CBK286038] | 97.4
59 | O=C(Cn1cccc(C(=O)NCc2ccccc2)c1=O)Nc1cc(F)ccc1N1CCCC1 [CBK286041] | 101
60 | CCn1c(C)nc2cc(NC(=O)Cn3cccc(C(=O)NC4CCCCC4)c3=O)ccc21 [CBK286042] | 92.9
61 | CC(C)c1ccc(C(C)NC(=O)Cn2cccc(C(=O)Nc3ccc(F)cc3)c2=O)cc1 (centres unmarked) [CBK286043] | 89.3
62 | CC(C)c1ccc(C(C)NC(=O)Cn2cccc(C(=O)NC3CCCCC3)c2=O)cc1 (centres unmarked) [CBK286044] | 119
63 | CN1CCN(C(=O)Cn2cccc(C(=O)Nc3ccc(F)cc3)c2=O)C(c2ccccc2)C1 (centres unmarked) [CBK286045] | 96.6
64 | O=C(CC1CCN(C(=O)CC2CCCCC2)CC1)Nc1ccccc1CN1CCCC1 [CBK286046] | 100
65 | CC(CN1CCOCC1)C(=O)N1CC(C(=O)N2CCN(c3ccccc3)CC2)C1 (centres unmarked) [CBK286047] | 90.6
66 | CN1CCN(C(=O)Cn2cc(C(=O)Nc3ccc(F)cc3)ccc2=O)C(c2ccccc2)C1 (centres unmarked) [CBK286050] | 81.9
67 | Cc1ccc(C2CCCN2C(=O)Cn2cc(C(=O)NCc3ccccc3)ccc2=O)cc1C (centres unmarked) [CBK286051] | 88.1
68 | Cc1ccc(C)c(C2CCCN2C(=O)Cn2cc(C(=O)NCc3ccccc3)ccc2=O)c1 (centres unmarked) [CBK286052] | 112
69 | O=C(Cn1cccc(C(=O)Nc2ccc(F)cc2)c1=O)Nc1nc2c(s1)CCCCC2 [CBK286055] | 84.7
70 | O=C(Cn1cccc(C(=O)NC2CCCCC2)c1=O)Nc1nc2c(s1)CCCCC2 [CBK286056] | 90.1
71 | O=C(Cn1cccc(C(=O)NCc2ccccc2)c1=O)NC1(c2ccccc2)CCCC1 [CBK286058] | 89.1
72 | CCCn1cnc2cc(NC(=O)Cn3cccc(C(=O)Nc4ccc(F)cc4)c3=O)ccc21 [CBK286060] | 84.7
73 | CCC(c1ccc(F)cc1)N(C)C(=O)Cn1cccc(C(=O)Nc2ccc(F)cc2)c1=O (centres unmarked) [CBK286061] | 88.7
74 | Cc1ccc(C)c(C2CCCN2C(=O)Cn2cccc(C(=O)NCc3ccccc3)c2=O)c1 (centres unmarked) [CBK286062] | 78.5
75 | CC1CCc2nc(NC(=O)Cn3cccc(C(=O)Nc4ccc(F)cc4)c3=O)sc2C1 (centres unmarked) [CBK286063] | 95.5
76 | CC(CN(C)C(=O)Cn1cccc(C(=O)Nc2ccc(F)cc2)c1=O)c1ccccc1 (centres unmarked) [CBK286065] | 92.5
77 | CC(CN(C)C(=O)Cn1cccc(C(=O)NC2CCCCC2)c1=O)c1ccccc1 (centres unmarked) [CBK286066] | 92.5
78 | CC(C)(CNC(=O)Cn1cccc(C(=O)NC2CCCCC2)c1=O)c1ccccc1F [CBK286068] | 89.6
79 | CCn1c(CN2CCCC2c2nc(N(C)C)ncc2-c2ccccc2)nc2ccccc21 (centres unmarked) [CBK286070] | 83.4
80 | Cc1cc(C)nc(N2CCC(CC(=O)NCc3ccccc3N3CCCC3)CC2)n1 [CBK286071] | 95.5
